Test results published in ChEMBL document CHEMBL3885881, “DrugMatrix”.

Organism: Rattus norvegicus
Test: DrugMatrix - Regimen: Daily Repeat
Assay type: toxicity, organism-based, Sprague-Dawley
Set-up: regimen Daily Repeat, gender Male, age 6-8 weeks
Conditions: in vivo, po, route oral GAVAGE; for BASOPHIL / EOSINOPHIL / ERYTHROCYTE COUNT / HEMATOCRIT / HEMOGLOBIN / LEUKOCYTE COUNT / LYMPHOCYTE / MEAN CORPUSCULAR HEMOGLOBIN / MEAN CORPUSCULAR HEMOGLOBIN CONCENTRATION / MEAN CORPUSCULAR VOLUME / MONOCYTE / NEUTROPHIL / PLATELET COUNT / ABSOLUTE BASOPHIL / ABSOLUTE EOSINOPHIL / ABSOLUTE LYMPHOCYTE / ABSOLUTE MONOCYTE / ABSOLUTE SEGMENTED NEUTROPHIL / NUCLEATED RED BLOOD CELLS: tissue Blood; for ALANINE AMINOTRANSFERASE / ALBUMIN / ALKALINE PHOSPHATASE / ASPARTATE AMINOTRANSFERASE / BLOOD UREA NITROGEN / CHLORIDE / CHOLESTEROL / CREATINE PHOSPHOKINASE / CREATININE / GLUCOSE / PHOSPHORUS / POTASSIUM / SODIUM / TOTAL BILIRUBIN / TOTAL PROTEIN / CARBON DIOXIDE / LACTATE DEHYDROGENASE / LIPASE / URIC ACID: tissue Plasma
[1] = 0 mg/kg, 72 h, dose level Control, time 3 day, vehicle .5 % CMC
[2] = 0 mg/kg, 120 h, dose level Control, time 5 day, vehicle .5 % CMC
[3] = 59 mg/kg, 72 h, dose level Low, time 3 day, vehicle .5 % CMC
[4] = 59 mg/kg, 120 h, dose level Low, time 5 day, vehicle .5 % CMC
[5] = 25 mg/kg, 72 h, dose level Low, time 3 day, […]
[6] = 25 mg/kg, 120 h, dose level Low, time 5 day, […]

CC[C@@H](CO)NCCN[C@@H](CC)CO [ETHAMBUTOL]
BASOPHIL [1]: 0%
EOSINOPHIL [1]: 0.33%
ERYTHROCYTE COUNT [1]: 6.2 x10E6/uL
HEMATOCRIT [1]: 38.08%
HEMOGLOBIN [1]: 14.92 G/DL
LEUKOCYTE COUNT [1]: 11.13 x10E3/uL
LYMPHOCYTE [1]: 76%
MEAN CORPUSCULAR HEMOGLOBIN [1]: 24.1 pg
MEAN CORPUSCULAR HEMOGLOBIN CONCENTRATION [1]: 39.17 G/DL
MEAN CORPUSCULAR VOLUME [1]: 61.48 fL
MONOCYTE [1]: 3.83%
NEUTROPHIL [1]: 19.83%
PLATELET COUNT [1]: 1327.5 x10E3/uL
ALANINE AMINOTRANSFERASE [1]: 40.17 u/L
ALBUMIN [1]: 4.07 G/DL
ALKALINE PHOSPHATASE [1]: 372 u/L
ASPARTATE AMINOTRANSFERASE [1]: 67.17 u/L
BLOOD UREA NITROGEN [1]: 18.83 mg/dL
CHLORIDE [1]: 105.17 MEQ/L
CHOLESTEROL [1]: 78.17 mg/dL
CREATINE PHOSPHOKINASE [1]: 149.17 u/L
CREATININE [1]: 0.57 mg/dL
GLUCOSE [1]: 185.17 mg/dL
PHOSPHORUS [1]: 11.43 mg/dL
POTASSIUM [1]: 6.78 MEQ/L
SODIUM [1]: 152.83 MEQ/L
TOTAL BILIRUBIN [1]: 0.4 mg/dL
TOTAL PROTEIN [1]: 6.87 G/DL
BASOPHIL [2]: 0%
EOSINOPHIL [2]: 0%
ERYTHROCYTE COUNT [2]: 6.05 x10E6/uL
HEMATOCRIT [2]: 36.55%
HEMOGLOBIN [2]: 14.7 G/DL
LEUKOCYTE COUNT [2]: 11.8 x10E3/uL
LYMPHOCYTE [2]: 86.83%
MEAN CORPUSCULAR HEMOGLOBIN [2]: 24.37 pg
MEAN CORPUSCULAR HEMOGLOBIN CONCENTRATION [2]: 40.32 G/DL
MEAN CORPUSCULAR VOLUME [2]: 60.47 fL
MONOCYTE [2]: 0.83%
NEUTROPHIL [2]: 12.33%
PLATELET COUNT [2]: 1177 x10E3/uL
ALANINE AMINOTRANSFERASE [2]: 41.83 u/L
ALBUMIN [2]: 3.75 G/DL
ALKALINE PHOSPHATASE [2]: 377.5 u/L
ASPARTATE AMINOTRANSFERASE [2]: 60.83 u/L
BLOOD UREA NITROGEN [2]: 16 mg/dL
CHLORIDE [2]: 105.67 MEQ/L
CHOLESTEROL [2]: 67.83 mg/dL
CREATINE PHOSPHOKINASE [2]: 120.33 u/L
CREATININE [2]: 0.6 mg/dL
GLUCOSE [2]: 167.67 mg/dL
PHOSPHORUS [2]: 10.03 mg/dL
POTASSIUM [2]: 6.68 MEQ/L
SODIUM [2]: 150.5 MEQ/L
TOTAL BILIRUBIN [2]: 0.57 mg/dL
TOTAL PROTEIN [2]: 6.25 G/DL
BASOPHIL [3]: 0%
EOSINOPHIL [3]: 0.67%
ERYTHROCYTE COUNT [3]: 6.09 x10E6/uL
HEMATOCRIT [3]: 36.33%
HEMOGLOBIN [3]: 14.2 G/DL
LEUKOCYTE COUNT [3]: 11.65 x10E3/uL
LYMPHOCYTE [3]: 88%
MEAN CORPUSCULAR HEMOGLOBIN [3]: 23.7 pg
MEAN CORPUSCULAR HEMOGLOBIN CONCENTRATION [3]: 39.55 G/DL
MEAN CORPUSCULAR VOLUME [3]: 59.63 fL
MONOCYTE [3]: 0.33%
NEUTROPHIL [3]: 11%
PLATELET COUNT [3]: 1231 x10E3/uL
ALANINE AMINOTRANSFERASE [3]: 35.33 u/L
ALBUMIN [3]: 3.63 G/DL
ALKALINE PHOSPHATASE [3]: 327.67 u/L
ASPARTATE AMINOTRANSFERASE [3]: 58.33 u/L
BLOOD UREA NITROGEN [3]: 11.67 mg/dL
CHLORIDE [3]: 104.33 MEQ/L
CHOLESTEROL [3]: 68 mg/dL
CREATINE PHOSPHOKINASE [3]: 185 u/L
CREATININE [3]: 0.57 mg/dL
GLUCOSE [3]: 165.33 mg/dL
PHOSPHORUS [3]: 12.53 mg/dL
POTASSIUM [3]: 6.5 MEQ/L
SODIUM [3]: 149.67 MEQ/L
TOTAL BILIRUBIN [3]: 0.27 mg/dL
TOTAL PROTEIN [3]: 5.9 G/DL
BASOPHIL [4]: 0%
EOSINOPHIL [4]: 0%
ERYTHROCYTE COUNT [4]: 6.14 x10E6/uL
HEMATOCRIT [4]: 38.6%
HEMOGLOBIN [4]: 15.1 G/DL
LEUKOCYTE COUNT [4]: 11.85 x10E3/uL
LYMPHOCYTE [4]: 89.33%
MEAN CORPUSCULAR HEMOGLOBIN [4]: 24.7 pg
MEAN CORPUSCULAR HEMOGLOBIN CONCENTRATION [4]: 39.2 G/DL
MEAN CORPUSCULAR VOLUME [4]: 63.03 fL
MONOCYTE [4]: 0.67%
NEUTROPHIL [4]: 10%
PLATELET COUNT [4]: 1247.67 x10E3/uL
ALANINE AMINOTRANSFERASE [4]: 27.67 u/L
ALBUMIN [4]: 3.57 G/DL
ALKALINE PHOSPHATASE [4]: 273.67 u/L
ASPARTATE AMINOTRANSFERASE [4]: 55 u/L
BLOOD UREA NITROGEN [4]: 11.33 mg/dL
CHLORIDE [4]: 105.67 MEQ/L
CHOLESTEROL [4]: 89 mg/dL
CREATINE PHOSPHOKINASE [4]: 135.33 u/L
CREATININE [4]: 0.5 mg/dL
GLUCOSE [4]: 157.67 mg/dL
PHOSPHORUS [4]: 11.8 mg/dL
POTASSIUM [4]: 6.47 MEQ/L
SODIUM [4]: 151.33 MEQ/L
TOTAL BILIRUBIN [4]: 0.2 mg/dL
TOTAL PROTEIN [4]: 6 G/DL

O=c1ccc2ccccc2o1 [COUMARIN]
ABSOLUTE BASOPHIL [5]: 0 CELLS/uL
ABSOLUTE EOSINOPHIL [5]: 0 CELLS/uL
ABSOLUTE LYMPHOCYTE [5]: 13415.67 CELLS/uL
ABSOLUTE MONOCYTE [5]: 244.67 CELLS/uL
ABSOLUTE SEGMENTED NEUTROPHIL [5]: 973 CELLS/uL
BASOPHIL [5]: 0%
EOSINOPHIL [5]: 0%
ERYTHROCYTE COUNT [5]: 5.76 x10E6/uL
HEMATOCRIT [5]: 36.97%
HEMOGLOBIN [5]: 14.6 G/DL
LEUKOCYTE COUNT [5]: 14.63 x10E3/uL
LYMPHOCYTE [5]: 92%
MEAN CORPUSCULAR HEMOGLOBIN [5]: 25.4 pg
MEAN CORPUSCULAR HEMOGLOBIN CONCENTRATION [5]: 39.5 G/DL
MEAN CORPUSCULAR VOLUME [5]: 64.27 fL
MONOCYTE [5]: 1.67%
NEUTROPHIL [5]: 6.33%
NUCLEATED RED BLOOD CELLS [5]: 0 /100WBC
PLATELET COUNT [5]: 1015 x10E3/uL
ALANINE AMINOTRANSFERASE [5]: 75 u/L
ALBUMIN [5]: 4.13 G/DL
ALKALINE PHOSPHATASE [5]: 469.67 u/L
ASPARTATE AMINOTRANSFERASE [5]: 106.33 u/L
BLOOD UREA NITROGEN [5]: 10.67 mg/dL
CARBON DIOXIDE [5]: 33.67 mmol/L
CHLORIDE [5]: 101.67 MEQ/L
CHOLESTEROL [5]: 71.67 mg/dL
CREATINE PHOSPHOKINASE [5]: 272.67 u/L
CREATININE [5]: 0.12 mg/dL
GLUCOSE [5]: 148 mg/dL
LACTATE DEHYDROGENASE [5]: 117 u/L
LIPASE [5]: 13.67 u/L
PHOSPHORUS [5]: 11.83 mg/dL
POTASSIUM [5]: 6.75 MEQ/L
SODIUM [5]: 146.1 MEQ/L
TOTAL BILIRUBIN [5]: 0.13 mg/dL
TOTAL PROTEIN [5]: 5.1 G/DL
URIC ACID [5]: 1.27 mg/dL
ABSOLUTE BASOPHIL [6]: 0 CELLS/uL
ABSOLUTE EOSINOPHIL [6]: 0 CELLS/uL
ABSOLUTE LYMPHOCYTE [6]: 11975.33 CELLS/uL
ABSOLUTE MONOCYTE [6]: 0 CELLS/uL
ABSOLUTE SEGMENTED NEUTROPHIL [6]: 1091.33 CELLS/uL
BASOPHIL [6]: 0%
EOSINOPHIL [6]: 0%
ERYTHROCYTE COUNT [6]: 5.78 x10E6/uL
HEMATOCRIT [6]: 36.27%
HEMOGLOBIN [6]: 14.1 G/DL
LEUKOCYTE COUNT [6]: 13.07 x10E3/uL
LYMPHOCYTE [6]: 91.33%
MEAN CORPUSCULAR HEMOGLOBIN [6]: 24.4 pg
MEAN CORPUSCULAR HEMOGLOBIN CONCENTRATION [6]: 38.9 G/DL
MEAN CORPUSCULAR VOLUME [6]: 62.7 fL
MONOCYTE [6]: 0%
NEUTROPHIL [6]: 8.67%
NUCLEATED RED BLOOD CELLS [6]: 0 /100WBC
PLATELET COUNT [6]: 1251 x10E3/uL
ALANINE AMINOTRANSFERASE [6]: 69 u/L
ALBUMIN [6]: 4.17 G/DL
ALKALINE PHOSPHATASE [6]: 466 u/L
ASPARTATE AMINOTRANSFERASE [6]: 95.67 u/L
BLOOD UREA NITROGEN [6]: 13.33 mg/dL
CARBON DIOXIDE [6]: 27 mmol/L
CHLORIDE [6]: 102.67 MEQ/L
CHOLESTEROL [6]: 64.33 mg/dL
CREATINE PHOSPHOKINASE [6]: 297 u/L
CREATININE [6]: 0.17 mg/dL
GLUCOSE [6]: 157.33 mg/dL
LACTATE DEHYDROGENASE [6]: 402.33 u/L
LIPASE [6]: 12.33 u/L
PHOSPHORUS [6]: 12 mg/dL
POTASSIUM [6]: 6.55 MEQ/L
SODIUM [6]: 143.47 MEQ/L
TOTAL BILIRUBIN [6]: 0.23 mg/dL
TOTAL PROTEIN [6]: 5.73 G/DL
URIC ACID [6]: 1.8 mg/dL
